How the values were obtained:
[1] = molecular target: RIPK1 (receptor-interacting serine/threonine-protein kinase 1) (Homo sapiens (Human), UniProt Q13546); test: RIPK1 inhibitory activity, autophosphorylation of immuno-precipitated RIPK1 with [32P]γ-ATP; format: biochemical; conditions: for activity at 100 µM: compound 100 μM, remaining RIPK1 phosphorylation; for inhibition at 100 µM: Table 2, 100 μM
Method: The following experiment was performed to evaluate RIPK1 (receptor-interacting serine/threonine-protein kinase 1) inhibitory activity of the compounds of examples of the invention.
RIPK1 enzyme immuno-precipitated in HEK293 (Human Embryonic Kidney 293) cell lysate was used as kinase. The experiment was performed according to the method described in Cell. 12; 137(6):1112-23(2009). RIPK1 protein was over-expressed in HEK293 cell line, to which lysis buffer (50 mM Tris-Cl [pH 8.0], 150 mM NaCl, 1 mM EDTA, 1% NP-40, 0.4 mM phenylmethylsulfonyl fluoride (PMSF)) was added for cell lysis. Centrifugation was performed at 13,000 rpm for 10 minutes to separate the supernatant. RIPK1 monoclonal antibody (610459, BD Bioscience) and A/G agarose beads (sc-2003, Santa Cruz Biotechnology) were added thereto, followed by immuno-precipitation in a 4° C. rotator for 12 hours.
The immune complex was washed with lysis buffer twice and then washed with kinase assay buffer (20 mM HEPES [pH7.6], 2 mM DTT, 1 mM NaF, 1 mM Na3Vo4, 20 mM β-glycerophosphate, 20 mM PNPP, 20 mM MgCl2, 20 mM MnCl2, 1 mM Benzamidie, and 1 mM EDTA) lastly. Kinase assay buffer and the compound were added to the RIPK1 immuno-precipitate, followed by reaction in a 24° C. constant-temperature water bath for 15 minutes. Additional reaction was induced for 30 minutes at 30° C. after 100 μM of ATP and 10 μCi[^32P] γ-ATP were added thereto. The reaction mixture was washed with kinase assay buffer once, to which protein loading buffer was added, followed by heating at 100° C. for 3 minutes. The reaction mixture was then loaded on 8% SDS-PAGE gel. Radioactive image of the phosphorylated RIPK1 was detected with FLA-7000 (GE healthcare). The image Quant TL program was used for the quantification.

[2] = system: RGC-5 (rat ganglion cell); test: Retinal nerve protection under oxygen-glucose deprivation (OGD), LDH assay; format: cell-based; conditions: RGC-5, OGD 15 hours, compound 20 μM, DMSO control = 100%
Method: The following experiment was performed to evaluate the protective effect of the compounds of examples of the invention on the retinal nerve under oxygen-glucose deprivation condition.
The retinal ganglion cell line RGC-5 (rat ganglion cell) was cultured in DMEM (Dulbecco's modified Eagle's medium) supplemented with 10% FBS (fetal bovine serum) and 1% penicillin/streptomycin. The cells were distributed in a 96-well plate at the density of 8×10^3 cells/well, followed by culture in a 37° C., CO2 incubator for 12 hours. The cells were washed with PBS once and the medium was replaced with glucose free DMEM. The cells were treated with either DMSO (0.1%) alone (control) or with the compounds of examples (20 μM) shown in Table 3, followed by culture in an anaerobic incubator (10% H2, 5% CO2, 85% N2, 37° C., chamber (ThermoForma, USA)) for 15 hours to induce cell death.
The level of cell death was measured by LDH (lactate dehydrogenase, Roche) assay. The LDH assay is a method for measuring the activity of LDH released from the damaged cells into the culture medium. NAD^+ was reduced to NADH and H^+ by LDH, and the bond of tetrazolium salt INT ring was cleaved by diaphorase to form formazan. Absorbance of the formazan was measured at 490 nm by using Victor 3 (PerkinElmer). The absorbance reflects the amount of dead cells.
The level of the control LDH under oxygen-glucose deprivation condition was regarded as 100%, and the level of LDH in the cell group cultured in normal medium (10% FBS, DMEM) for the same time was regarded as 0%. Based on that, the levels of LDH of the cell groups treated with the compounds of the invention under oxygen-glucose deprivation condition were converted into the relative ratio of cell death. The compounds of examples of the invention were treated to wells, each compound for three wells, and then each experiment was performed in triplicate.

RIPK1 (receptor-interacting serine/threonine-protein kinase 1), sequence (Q13546 whole entry, species assumed): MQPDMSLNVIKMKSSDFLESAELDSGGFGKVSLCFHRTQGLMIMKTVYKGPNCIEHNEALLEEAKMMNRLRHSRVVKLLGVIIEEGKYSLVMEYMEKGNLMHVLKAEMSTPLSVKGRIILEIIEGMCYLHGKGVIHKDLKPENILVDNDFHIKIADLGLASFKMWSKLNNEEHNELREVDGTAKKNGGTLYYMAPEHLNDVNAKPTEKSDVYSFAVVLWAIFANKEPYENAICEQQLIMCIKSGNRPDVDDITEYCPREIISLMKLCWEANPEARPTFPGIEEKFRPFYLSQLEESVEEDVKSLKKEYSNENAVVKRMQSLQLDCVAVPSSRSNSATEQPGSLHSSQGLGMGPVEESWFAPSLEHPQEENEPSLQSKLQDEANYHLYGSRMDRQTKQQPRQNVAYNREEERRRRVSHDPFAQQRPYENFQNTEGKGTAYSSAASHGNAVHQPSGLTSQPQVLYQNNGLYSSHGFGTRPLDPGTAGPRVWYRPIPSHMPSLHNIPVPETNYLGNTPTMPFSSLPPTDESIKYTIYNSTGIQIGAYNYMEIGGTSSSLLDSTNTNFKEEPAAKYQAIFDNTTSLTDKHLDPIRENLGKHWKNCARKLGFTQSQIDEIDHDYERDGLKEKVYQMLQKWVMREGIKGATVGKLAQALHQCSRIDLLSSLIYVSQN

Row | Structure (SMILES) | activity at 100 µM [1] | Death of retinal nerve cell (%) [2] | inhibition at 100 µM [1]
1 | O=C(c1cc2c(-c3ccc(F)cc3)cccc2s1)N1CCOC1 [Example 46, (4-(4-fluorophenyl)benzo[b]thiophene-2-yl) (oxazolidine-3-yl)methanone] | 11 ± 5.7% | 55.4 ± 12.8% | 
2 | O=C(c1cc2c(Oc3ccc(F)cc3)cccc2s1)N1CCOCC1 [Example 59, (4-(4-fluorophenoxy)benzo[b]thiophene-2-yl)(morpholino)methanone] | 21 ± 7.1% | 59.5 ± 14.7% | ≥ 50%
3 | CCN(CC)C(=O)c1cccc2sc(C(=O)N3CCOCC3)cc12 [Example 20, N,N-diethyl-2-(morpholine-4-carbonyl)benzo[b]thiophene-4-carboxamide] | 77 ± 12.5% | 43.6 ± 8.5% | 
4 | O=C(c1cc2c(CCc3ccc(F)cc3)cccc2s1)N1CCOCC1 [Example 60, (4-(4-fluorophenethyl)benzo[b]thiophene-2-yl)(morpholino)methanone] | 22 ± 15.6% | 89.8 ± 10.7% | ≥ 50%
5 | CN1CCN(C(=O)c2cc3c(-c4ccc(F)cc4)cccc3s2)CC1.Cl [Example 49, (4-(4-fluorophenyl)benzo[b]thiophene-2-yl)(4-methylpiperazine-1-yl)methanone hydrochloride] | 27 ± 5.7% | 43.8 ± 13.7% | ≥ 50%
6 | O=C(c1cc2c(-c3ccc(O)cc3)cccc2s1)N1CCOCC1 [Example 44, (4-(4-hydroxyphenyl)benzo[b]thiophene-2-yl)(morpholino)methanone] | 21 ± 17% | 81.1 ± 6.5% | ≥ 50%
7 | O=C(c1cc2c(-c3ccc(-c4ccccc4)cc3)cccc2s1)N1CCOCC1 [Example 31, (4-(biphenyl-4-yl)benzo[b]thiophene-2-yl)(morpholino)methanone] | 85.2 ± 3.5% | 81.2 ± 8.3% | 
8 | O=C(c1cc2c(-c3ccc4[nH]ccc4c3)cccc2s1)N1CCOCC1 [Example 9, (4-(1H-indole-5-yl)benzo[b]thiophene-2-yl)(morpholino)methanone] | 76 ± 33.9% | 64.6 ± 9.5% | 
9 | O=C(c1cc2c(NS(=O)(=O)c3ccc(F)cc3)cccc2s1)N1CCOCC1 [Example 70, 4-fluoro-N-(2-(morpholine-4-carbonyl)benzo[b]thiophene-4-yl)benzenesulfonamide] | 65 ± 32.5% | 48.7 ± 10.3% | 
10 | O=C(c1cc2c(-c3ccc(F)cc3)cncc2s1)N1CCOCC1 [Example 2, (4-(4-fluorophenyl)thieno[2,3-c]pyridine-2-yl)(morpholino)methanone] | 45 ± 12.7% |  | ≥ 50%
11 | O=C(c1cc2c(Cc3ccc(F)cc3F)cccc2s1)N1CCOCC1 [Example 57, (4-(2,4-difluorobenzyl)benzo[b]thiophene-2-yl)(morpholino)methanone] | 20 ± 14.1% | 89.1 ± 16.9% | 
12 | COc1ccc(-c2cccc3sc(C(=O)N4CCOCC4)cc23)cc1 [Example 34, (4-(4-methoxyphenyl)benzo[b]thiophene-2-yl)(morpholino)methanone] | 16.5 ± 7.8% | 55.4 ± 18.1% | 
13 | O=C(c1cc2c(Cc3cccc(F)c3)cccc2s1)N1CCOCC1 [Example 56, (4-(3-fluorobenzyl)benzo[b]thiophene-2-yl)(morpholino)methanone] | 54.5 ± 37.5% | 81.0 ± 16.1% | 
14 | Cl.O=C(c1cc2c(-c3ccc(F)nc3)cccc2s1)N1CCOCC1 [Example 66, (4-(6-fluoropyridine-3-yl)benzo[b]thiophene-2-yl)(morpholino)methanone hydrochloride] | 11.5 ± 4.9% | 45.2 ± 10.5% | 
15 | O=C(c1cc2c(-c3cccc(-c4ccccc4)c3)cccc2s1)N1CCOCC1 [Example 41, (4-(biphenyl-3-yl)benzo[b]thiophene-2-yl)(morpholino)methanone] | 84.7 ± 6.4% | 58.3 ± 6.5% | 
